US20160168724A1, “POLYVINYLBUTYRAL COATING CONTAINING THIOL CORROSION INHIBITORS” (The Boeing Company, priority 2014, published 2016)

Assay: Linear sweep voltammetry with rotating disc electrode, inhibitors in electrolyte solution
Settings: for Current (A) @ −800 mV: 10 ppm inhibitor solution in 5% NaCl-PBS pH 7, copper rotating disc electrode 1000 rpm, LSV; for IE (inhibitor efficiency, Equation 1): 10 ppm inhibitor solution, from current at -800 mV versus blank
Method: Linear sweep voltammetry (LSV) and chronoamperometry were used to evaluate the performance of the thio-containing corrosion inhibitors as electroactive cathodic-thio compounds. The LSV experiments were performed with a rotating disc electrode (RDE). The rotating disc electrode technique provides certain benefits in measurement sensitivity because the technique indicates current at steady state with a kinetic flow over the electrode rather than a static measurement in solution (FIG. 1).
Inhibitor performance was measured based on the ability of the compound to prevent the oxygen reduction reaction in electrolyte using a rotating disc electrode. If current values were closer to zero then the inhibitor was considered to be appropriate because the oxygen reduction reaction, which is an indication of corrosion, was sequestered or stopped. Solutions of known concentration (e.g., containing 10 ppm inhibitor) were used to compared inhibitors. Inhibitor efficiency (IE), is calculated using Equation 1 (IE corrects for contributions not attributable to the inhibitor (e.g., electrolyte)).
Inhibitor Efficiency=(iinhibitor−iblank)/iblank (Equation 1)
Performance of different inhibitors (10 ppm solutions) was evaluated by measuring current value (A) at −800 mV and determining inhibitor efficiency, the results of which are shown in Table 5.
A 5% (wt/wt) sodium chloride solution (that is, electrolyte system A of Table 7) was selected to simulate a highly corrosive environment and potentially accelerate the corrosion. The electrolyte was buffered to eliminate changes in pH from effecting inhibitor performance measurements. A pH of 7 was selected because it was similar to seawater.
The 5% (wt/wt) (0.9 M) sodium chloride electrolyte solution was generated by adding reagent grade sodium chloride to <18 M·cm resistivity to deionized water (52.6 gm NaCl to 1 liter water). The solution was then buffered to neutral pH 7 with phosphate buffered saline tablets from Sigma Aldrich-(P4417-100TAB), 1 tablet per 200 ml of solution Inhibitors were dissolved in an 5% sodium chloride electrolyte buffered with phosphate buffered saline to maintain the pH at 7. Ten parts per million (10 ppm) solutions were generated by taking an aliquot of solutions with a higher known inhibitor concentration and diluting to make a 10 ppm solution. In most cases the higher concentration target was 50 ppm. The initial solutions were generated by adding 0.050 gm of inhibitor in a 5% NaCl buffered electrolyte in a one liter volumetric flask. Not all of the inhibitor dissolved, so the solution was filtered to calculate the solubility and the actual concentration. The solutions were stirred overnight with a stir bar and then filtered using a pre-weighed, 4.7 cm diameter, 1.0 micron pore size glass fiber filters (Whatman Grade GF/B 1821-047) and a Millipore glass filter funnel. The glass filter and clamp funnel was an improvement to previous filter methods that utilized a Buchner funnel and paper filters. After the filtrate was collected, the funnel and filter paper were rinsed thoroughly with deionized water to ensure that no electrolyte salts were trapped in the filter and that residual solids on the sides of the filter funnel were collected. The filter with solids was dried over night in an approximately 120° C. oven, allowed to come to room temperature in a desiccator, and weighed. The actual solution concentration was calculated based on the actual inhibitor dissolved. Concentration calculations also accounted for residual salts that are sometimes still present in the filter. These were measured by running a blank. An aliquot was taken of the 50 ppm solution and a final 10 ppm solution generated. […]

| Molecule | Current (A) @ −800 mV | IE (inhibitor efficiency, Equation 1) |
| --- | --- | --- |
| Sc1nsc(S)n1 [1,2,4 DMcT, 1,2,4-Thiadiazole-3,5-dithiol] | −1.53 × 10^−4 A | 0.70 |
| Sc1nnc([S][Al]([S]c2nnc(S)s2)[S]c2nnc(S)s2)s1 [1:3AlDMcT (acid), [Al:2,5-dimercapto-1,3,4-thiadiazole (1:3)] (acid)] | −2.83 × 10^−4 A | 0.44 |
| Sc1nnc([S][Al]([S]c2nnc(S)s2)[S]c2nnc(S)s2)s1 [1:3AlDMcT, [Al:2,5-dimercapto-1,3,4-thiadiazole (1:3)]] | −2.25 × 10^−4 A | 0.55 |
| N1=C2SSc3nnc(s3)SSC(=N1)S2 [BDTD, Bis-[2,5-dithio-1,3,4-thiadiazole]] | −3.00 × 10^−4 A | 0.40 |
| Sc1nnc(SSc2nnc(S)s2)s1 [Vanlube 829, 5,5′-Dithiobis(1,3,4-Thiadiazole-2(3H)-thione)] | −2.68 × 10^−4 A | 0.47 |
| [Al:2,5-dimercapto-1,3,4-thiadiazole (3:1)] [3:1 AlDMcT] | −2.59 × 10^−4 A | 0.49 |
